According to patent US20150266864A1, “HETEROAROMATIC COMPOUNDS, METHOD FOR PREPARING THE COMPOUNDS, PHARMACEUTICAL COMPOSITIONS, USES AND METHOD FOR TREATING ACUTE AND CHRONIC PAIN” (CRISTÁLIA PRODUTOS QUÍMICOS FARMACÊUTICOS LTDA, priority 2012, published 2015):

What was measured:
Swiss mice [1] = experiment: Hot plate model, assay for acute pain; type: in vivo; conditions: ip, 32.25 μmol/kg, plate 52° C., compared to morphine sulfate at the same dose
Excerpt: The antinociceptive activity (AA) of the present invention selected compounds (C3, C9, C11, C12, C13, C15 and C17) was investigated in hot plate model [Hot Plate Model LE7406, Scientific Inc.] described by Kuraishi et al. [Kuraishi, Y., Harada, Y., Aratani, S., Satoh, M., Takagi, H. Brain Research 1983.273, 245-2523]. This method is valid to evaluate the analgesic activity of substances acting on the central nervous system. Swiss mice weighing 20-25 g were placed on a metal plate heated up to 52° C. The animals were withdrawn from the hot plate at the time they lead their forepaws toward the mouth to lick, being this an indicative of pain second Le Bars et al. [Le Bars, D., Gozariu, M., Cadden, S. W. Animal models of nociception. Pharmacol. Rev. 2001, 53 (4), 597-652]. In this way, it was analyzed how long the animal, treated or not (control) with the analgesic substance, remained on the plate at 52° C.; the longest residence time of an animal on the plate was 35 seconds. This time limit (or cut off) (35 s) was determined by the average of three measurements of latency control values, obtained for each animal multiplied by three, to prevent any kind of tissue injury on the footpad of animals's paw due to long permanence on the heated surface. The protocol consisted in the intraperitoneal (ip) injection of the selected compounds of the present invention at a dose of 32.25 μmol/kg. The antinociceptive activity was evaluated at intervals of 10 minutes until effect completely disappear and, compared to morphine sulfate ([…]) at the same dose of 32.25 μmoles/kg (12.2 mg/kg). The investigated parameter is the latency of reflex to paw withdrawal in response to thermal stimulus. The results were expressed as percentage of AA, which was calculated according to Equation 1 for each experiment.

rats subjected to SNL [2] = experiment: Spinal nerve ligation (SNL) L5 model, thermal hyperalgesia; type: in vivo, rat
Method: (§1) This experimental model was proposed by Kim and Chung [Kim, S. H.; Chung, J. M. Pain 1992, 50: 355-363] and consists of ligation of spinal nerves. Male Wistar rats, 180-220 g, were anesthetized with a mixture of ketamine and xylazine (60 mg/kg and 5 mg/kg, respectively) intraperitoneally. After the dorsal region asepsy, an incision was made between L5 and S1. The L6 transverse process was removed for locating the nerves L4 and L5, which were carefully isolated, and tight ligation of the L5 nerve with 6.0 silk thread was made, interrupting flow of the axon of the nerve. After this procedure, para-spinal muscles and skin were sutured, and then a topical antiseptic was applied. False operated animals (sham) were subjected to the same procedure, however the spinal nerve was not ligated.
This method aims to evaluate the animal behavior in response to hyperalgesic phenomenon resulting from the injury induced by the ligament of spinal nerve (L5). In this regard, paw withdrawal in response to thermal stimulus was used, and the thermal stimulus was induced by the radiant heat of an incandescent lamp bulb. The paw withdrawal test was performed as described for the assessment of thermal hyperalgesia in the sciatic nerve chronic constrictive injury model.
(§2) Differences were considered significant when p<0.05.
(§3) The treatment started on the 7th day after surgery. Compounds were diluted in water or DMSO and administered through intraperitoneal route on daily basis, during 7 days, at a dose of […]. The effectiveness of tested compounds was assessed on days 1, 3, and 7 days after treatment, always before the next administration of the compound. Latencies were also assessed on days 1, 3, and 7 after treatment interruption.

rats subjected to SNL [3] = experiment: Spinal nerve ligation (SNL) L5 model, mechanical allodynia (digital Von Frey); type: in vivo, rat
Method: as §1
To evaluate the development of mechanical allodynia, digital analgesimeter (Model EFF301; Insight Equipments), digitalized version coupled to a pointed filament (Von Frey model variant) was used. This test aims to assess changes in tactile sensitivity in response to a mechanical stimulus as a result of a neural damage. The device consisted of a hand-held force transducer fitted with a sensor tip, through which a pressure with increasing strength is applied against the footpad of the animals hindpaw to assess the threshold of paw withdrawal, that is, the digital analgesimeter records the maximal strength, in grams (g), in which the animal withstands until the paw withdrawal reflex.
Animals were placed in individual acrylic boxes and let to acclimate for 30 min before the beginning of the test. After this period, the thresholds of hindpaw withdrawal were determinded. For each hindpaw, five records of the withdrawal thresholds were made, and the average for each hindpaw was defined as the paw withdrawal threshold control.
as §3, §2

Swiss-type male mice = experiment: RotaRod performance test, motor coordination; conditions: for Mice residence time on the rotational cylinder: 9 rpm, cut off 180 s, mean ± SEM
Method: The assessment of motor coordination in mice, by the rotarod performance test, was carried out to detect any possible sedative or muscle relaxant effect caused by the compounds of the present invention, previously tested in acute and neuropathic pain models. This test was carried out according to the method of described by Dunham & Miya and animal motor coordination was evaluated using RotaRod apparatus [Dunham M. S. & Miya. R. T. (1957). J. Amer. Pharmac. Assoc. Sci. Edit. 1957, 46, 208-209].
The RotaRod apparatus (Model 412 EFF, Insight Equipements, Brazil) is a device that measures motor coordination and thus evaluates balance alterations in mice. The apparatus consists of an acrylic box splited into four compartments with a rotational cylinder among them. The cylinder rotates at constant speed driven by a motor and regulated to the constant speed mode of 5-37 revolutions per minute (rpm). In this study the speed was set up to 9 rpm.
To remain on the rotational cylinder, the animal needs to move around, so that the motor coordination can be quantified. The four compartments have drop detection system, through the impact, a microprocessor circuit, for timing the permanence of the animal at the compartment, and for counting the number of falls.
The day before the test, Swiss-type male mice (19-25 g) were placed on the rotational cylinder, set up to the constant speed mode of 9 rpm for adaptation and learning. A group of 10 mice were used for each tested compound, and the total period spent on the rotational cylinder (in seconds) was recorded for a period of 180 seconds (cut off time) and it was accept a maximum of three falls for each animal. Motor coordination was assessed at times 0 (before treatment), 15, 30, 60 and 120 minutes after compounds administration at a dose of 32.25 μmol/kg.
All compounds were administered intraperitoneally (ip).
The Student's t-test was also used to compare means between two experimental groups. Differences were considered significant when p<0.05.

Swiss mice [4] = experiment: Hot plate model, assay for acute pain; type: in vivo; conditions: ip, 32.25 μmol/kg
[5] = ip during 7 days, 32.25 μmol/kg
[6] = T 15 min after ip administration, 32.25 μmol/kg
[7] = T 30 min after ip administration, 32.25 μmol/kg (diazepam 2 mg/kg)
[8] = T 60 min after ip administration, 32.25 μmol/kg (diazepam 2 mg/kg)
[9] = T 120 min after ip administration, 32.25 μmol/kg (diazepam 2 mg/kg)

Row | Structure (SMILES) | antinociceptive activity (AA), hot plate (Swiss mice [1]) | reversal of hyperalgesia signs associated with neuropathic pain (rats subjected to SNL [2]; [5]) | increase on the latency vs control post-surgery (rats subjected to SNL [2]; since the 3rd day of treatment, 32.25 μmol/kg ip) | paw withdrawal threshold, mechanical allodynia (rats subjected to SNL [3]; after 3 days of treatment, 32.25 μmol/kg ip, p<0.05) | reversal of allodynia signs associated with neuropathic pain (rats subjected to SNL [3]; [5]) | animal residence time on the rotational cylinder compared to controls (Swiss-type male mice; 15 minutes after administration, 32.25 μmol/kg) | Mice residence time on the rotational cylinder (Swiss-type male mice; [6]) [s] | Mice residence time on the rotational cylinder (Swiss-type male mice; [7]) [s] | Mice residence time on the rotational cylinder (Swiss-type male mice; [8]) [s] | Mice residence time on the rotational cylinder (Swiss-type male mice; [9]) [s] | side effects compared to morphine (Swiss mice [4]) | melting point [°C]
1 | CCN1CCN(CCc2c[nH]nc2-c2ccc(F)cc2)CC1.Cl.Cl.Cl.O.O.O [C12, 1-ethyl-4-{2-[3-(4-fluorophenyl)-1H-pyrazol-4-yl]ethyl}piperazine trihydrochloride trihydrate] | exhibit antinociceptive activity of intensity and kinetics similar to morphine sulfate | effective in reverse the hyperalgesia and allodynia signs | statistically significant increase | significant (p<0.05) paw withdrawal threshold | effective in reverse the hyperalgesia and allodynia signs | equal to the time observed for the negative control, and significantly higher than the time observed for the control amitriptyline hydrochloride | 179.6 | 178.6 | 178.2 | 179.8 | no side effects of conventional morphine | –
2 | OC1(c2ccc(Cl)cc2)CCN(CCc2c[nH]nc2-c2ccc(F)cc2)CC1 [C13, 4-(4-chlorophenyl)-1-{2-[3-(4-fluorophenyl)-1H-pyrazol-4-yl]ethyl}piperidin-4-ol] | exhibit antinociceptive activity of intensity and kinetics similar to morphine sulfate | – | – | – | – | – | 100.9 | 95.5 | 143.7 | 152.4 | no side effects of conventional morphine | 142 to 144
